From article PMC6920499, “Sustainability potentials of novel laccase tinctures from Stenotrophomonas maltophilia BIJ16 and Bordetella bronchiseptica HSO16: From dye decolourization to denim bioscouring” (Biotechnology Reports, 2019)

Legend:
[1] = tested on: T1, Bordetella sp. HSO16 laccase (Hb16c laccase); experiment: ABTS oxidation at […] nm, Lineweaver-Burk; assay type: biochemical; details: crude laccase; standard assay potassium phosphate pH 6, 30 °C
T1 construct: gene cueO; crude culture supernatant, native secreted laccase, not purified; several laccase-like genes inferred by PCR
Text: HSO16 laccase (Hb16c laccase)

[2] = tested on: T2, Stenotrophomonas sp. BIJ16 laccase (Berl1^1b2 laccase); experiment: ABTS oxidation at […] nm, Lineweaver-Burk; assay type: biochemical; details: crude laccase; standard assay potassium phosphate pH 6, 30 °C
T2 construct: gene MCOStm; crude culture supernatant, native secreted laccase, not purified; several laccase-like genes inferred by PCR
Text: BIJ16 laccase (Berl1^1b2 laccase)

CCn1c(=NN=c2sc3cc(S(=O)(=O)O)ccc3n2CC)sc2cc(S(=O)(=O)O)ccc21 [ABTS, 2,2’-azino-bis (3-ethylbenzothiazoline-6-sulfonic acid)] gave a Km [1] of 1.09 µM and a Km [2] of 0.636 µM.
